Values joined by “and” are separate entries in the source; they are usually repeats but may differ in a detail not shown here. Equal entries are not always repeated.
How the values were obtained:
[1] = molecular target: T1, Pyrococcus horikoshii biotin protein ligase (PhBPL) (Pyrococcus horikoshii, UniProt O57883); experiment: Steady state fluorescence titration of PhBPL with ligand; format: binding; conditions: for blue shift of emission maximum / quenching of intrinsic protein fluorescence: saturating ligand
T1 sequence (O57883 1-235): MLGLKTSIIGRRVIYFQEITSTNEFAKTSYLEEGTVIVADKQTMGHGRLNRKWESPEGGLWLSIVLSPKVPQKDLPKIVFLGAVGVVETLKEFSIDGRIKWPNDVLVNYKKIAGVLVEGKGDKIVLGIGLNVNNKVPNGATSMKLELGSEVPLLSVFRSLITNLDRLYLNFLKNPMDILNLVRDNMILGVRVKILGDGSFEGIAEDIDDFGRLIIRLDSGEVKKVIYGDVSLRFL

E. coli BPL = conditions: bio-5′-AMP synthesis; cited from earlier work
[2] = molecular target: T1, Pyrococcus horikoshii biotin protein ligase (PhBPL); experiment: Isothermal titration calorimetry of PhBPL with biotin; format: binding
AUC = molecular target: the molecule itself; experiment: AUC
[3] = KD, 20°C, Standard Buffer pH 7.5
[4] = KD, 30°C, Standard Buffer pH 7.5
[5] = KD, 40°C, Standard Buffer pH 7.5
[6] = KD, 50°C, Standard Buffer pH 7.5

Nc1ncnc2c1ncn2C1OC(COP(=O)(O)CP(=O)(O)OP(=O)(O)O)C(O)C1O (stereo not drawn) [AMPCPP, α,β-methyleneadenosine 5′-triphosphate]
Kd ([1]; 20°C, Standard Buffer pH 7.5): 150 µM
Kd ([1]; 20°C, titrated into PhBPL saturated with biotin): 140 µM
ΔG° ([1]; 20°C, titrated into PhBPL saturated with biotin, ΔG°= RTlnKD): -5.1 ± 0.1 kcal/mol

Nc1ncnc2c1ncn2[C@@H]1O[C@H](COP(=O)(O)OP(=O)(O)OP(=O)(O)O)[C@@H](O)[C@H]1O [ATP, adenosine 5′-triphosphate]
Kd [1, 3]: 240 µM
Kd [1, 4]: 290 µM
Kd [1, 5]: 300 µM
Kd [1, 6]: 430 µM
Kd ([1]; KD, temperature range of 20-50°C): 200 to 400 µM
blue shift of emission maximum [1]: approximately 5 nm
quenching of intrinsic protein fluorescence [1]: 60%
binding enthalpy (van’t Hoff analysis) ([1]; titrations from 20 to 50°C): -3.5 ± 1.5 kcal/mol
Km (E. coli BPL): ~3000 µM

O=C(O)CCCC[C@@H]1SC[C@@H]2NC(=O)N[C@@H]21 [Biotin, d-biotin]
Kd ([1]; KD, 10°C, Standard Buffer pH 7.5): 0.12 µM
Kd [1, 3]: 0.2 µM
Kd [1, 4]: 0.2 µM
Kd [1, 5]: 0.51 µM
Kd [1, 6]: 0.39 µM
increase of equilibrium dissociation constant with temperature ([1]; from 10°C to 50°C): approximately four fold
blue shift of emission maximum [1]: approximately 5 nm
quenching of intrinsic protein fluorescence [1]: 30%
enthalpy of binding (van’t Hoff analysis) ([1]; titrations from 10 to 50°C): -4.4 ± 0.2 kcal/mol and -4.4 kcal/mol
equilibrium association constant by ITC ([2]; 20°C, direct titration): identical to that measured by fluorescence titrations
heat capacity change ([2]; temperature-dependence of binding by ITC): 5±14 cal/mole·K

B1: Pyrococcus horikoshii Biotin Protein Ligase (enzyme)
chain: MLGLKTSIIGRRVIYFQEITSTNEFAKTSYLEEGTVIVADKQTMGHGRLNRKWESPEGGLWLSIVLSPKVPQKDLPKIVFLGAVGVVETLKEFSIDGRIKWPNDVLVNYKKIAGVLVEGKGDKIVLGIGLNVNNKVPNGATSMKLELGSEVPLLSVFRSLITNLDRLYLNFLKNPMDILNLVRDNMILGVRVKILGDGSFEGIAEDIDDFGRLIIRLDSGEVKKVIYGDVSLRFL
stoichiometry N (AUC): 2
